Experimental data taken from patent EP1464336A1, “Use of tryprostatin A for the reversal of cancer drug resistance” (Humboldt-Universität zu Berlin, priority 2003, dated 2004).
Entries after “also recorded” stand apart in the source; their conditions may differ.

Columns and labels:
Type in all cases: cell-based, human
[1] = tested on: gastric and breast carcinoma cell variants; assay: Modulation of chemoresistance to mitoxantrone or daunorubicin (SRB proliferation assay, IC50/DMF)
Method: (§1) Modulation of chemoresistance was tested using a proliferation assay based on sulforhodamine B (SRB), a protein-binding reagent (Skehan P et al., J Natl Cancer Inst 1990;82:1107-12), as described in Lage H et al., Int J Hyperthermia 2000;16:291-303; Lage H et al., FEBS Lett 2001;503:179-84; Lage H et al., FEBS Lett 2001;494:54-9. In each experiment, 350 cells per well were seeded in the presence or absence of TPS-A in 96-well plates in complete medium and allowed to attach overnight. Mitoxantrone or daunorubicin were added in a dilution series in triplicate wells. After 5 days, when unselected wells were still subconfluent, incubation was terminated by replacing the medium with 10 % trichloroacetic acid, followed by incubation at 4 °C for 1 h. After samples were washed 5 times with water and air-dried, 50 µl 0.4 % SRB (Sigma, St. Louis, MO) in 1 % acetic acid was added and samples were incubated for 10 min at room temperature. Unbound dye was eliminated by washing the plates 5 times with 1 % acetic acid. After air-drying and re-solubilisation of the protein-bound dye in 10 mM Tris-HCl (pH 8.0), absorbance was quantified at 562.5 nm. To determine the IC50-value, the absorbance difference of control cells without drug was set to be 100 %. Linear regression of data was done for the linear part of the curve, and IC50-values were calculated from multiple, at least three independent experiments for each cell line.
The cellular sensitivity to mitoxantrone and daunorubicin was assessed by determining the IC50 values without or with increasing concentrations of TPS-A or GF120918 as a positive control in the different cancer cell variants. Table 1 presents the data of TPS-A reversal of mitoxantrone and daunorubicin resistance in different gastric and breast carcinoma cell variants, respectively. […] In each case, the equation DMF=(IC50 (-CS))/(IC50 (+CS)) [formula] was used to calculate the dose modifying factor (DMF), comparing the IC50 values in the presence (+CS) or absence (-CS) of the corresponding chemosensitizer (CS) TPS-A or GF120918.

[2] = tested on: MCF-7 breast cancer-derived cell variants; assay: Cytotoxicity of the MDR modulator alone (SRB proliferation assay)
Method: as §1, with “Unbound dye was eliminated by washing the plates 5 times with 1 % acetic acid.” left out, “To determine the IC50-value, the absorbance difference of control cells without drug was set to be 100 %.” left out
The cytotoxicity of the MDR modulators TPS-A and GF120918 on drug-sensitive and drug-resistant gastric and breast cancer cell lines was initially assessed.

[3] = tested on: control cells (EPG85-257P); assay: C6-NBD-PS outward translocation assay; conditions: 10 µM inhibitor; 30 minutes at 37°C (Fig. 8)
Method: To measure redistribution of C6-NBD-PS from the cytoplasmic to the exoplasmic leaflet, labelling of the cytoplasmic leaflet is preconditional. Previously, we have introduced a method to achieve efficient labeling of the plasma membrane inner leaflet of the gastric carcinoma cell line EPG85-257 (Pohl, A., Lage, H., Müller, P., Pomorksi, T., and Herrmann. A. (2002) Biochem. J. 365, 259-268). Briefly, cells were preincubated with or without MDR inhibitors, labelled with 5 µM C6-NBD-PS, and incubated at 20°C for 30 minutes to allow inward movement of the NBD analogue. C6-NBD-PS remaining on the cell surface was extracted twice by incubation with 2% (w/v) BSA in mPBS for 10 minutes on ice. Before starting the outward translocation assay, the medium was removed, and cells were washed with ice-cold mPBS. For t=0', ice-cold medium containing 2% (w/v) BSA and 5 mM DFP ( = diisopropyl fluoro-phosphate) in mPBS with or without inhibitor was immediately added to the cell dish for 10 minutes. To measure C6-NBD-PS outward translocation, medium prewarmed to 37°C was added to the dish, and cells were incubated at 37°C for 30 minutes (t = 30'). Removal of the BSA-containing media and a second extraction with 2% BSA in mPBS for 10 minutes terminated incubations, followed by lipid analysis.
After the incubations, the second BSA back exchange medium was pooled with the first, and cells scraped into mPBS. For analysis of outward translocation and of metabolic conversion of C6-NBD-PS, lipids from both scraped cells and media were extracted with isopropanol/chloroform/(5.5:1, v/v) to prevent substantial loss into the aqueous phase. Samples were centrifuged at 780 g for 5 minutes, the supernatant transferred into new glass tubes and dried, dissolved in chloroform/methanol (1:1) and quantified spectroscopically. For C6-NBD-PC analysis, lipids from both cells and incubation media were extracted by the method of Bligh and Dyer (Bligh, E., and Dyer, W. (1959) Can. J Biochem. Physiol. 37, 911-917) using 20 mM acetic acid in the aqueous phase. After 2-D separation [I, chloroform/methanol/25% ammonium hydroxide (65:25:4, v/v); II, chloroform/acetone/methanol/acetic acid/water (10:4:2:2:1, v/v)] on thin layer chromatography plates, fluorescent lipid spots were visualized under ultraviolet light, scraped, and quantified as described before (Pomorski, T., Müller, P., Zimmermann, B., Burger, K., Devaux, P., and Herrmann, A. (1996) J. Cell Sci. 109, 687-698).

[4] = tested on: BCRP overexpressing cells (EPG85-257RNOV); assay: Annexin assay: FITC-Annexin V binding, exposure of endogenous PS (flow cytometry); conditions: preincubation with 5 µM Tryprostatin A for 30 min at 37°C (Fig. 9, 10)
Method: (§2) To measure exposure of endogenous PS on the cell surface, cells were incubated on ice for 10 minutes in the dark with 9 nM FITC-Annexin V in binding buffer. Two minutes prior to the end of the incubation, propidium iodide (final 1.9 µM) was added. Cells were then washed three times, detached from the dishes through pipetting, and suspended in binding buffer. Measurement was performed with a FACSCalibur flow cytometer (Becton Dickinson, St. Louis, MO) 5 minutes after the end of incubation. Regions were set to exclude subcellular particles, and only single cells were counted (10 000 cells / sample). A further gate excluded damaged cells with elevated propidium iodide staining. Data were analyzed by Becton Dickinson CellQuest software.

[5] = tested on: control cells (EPG85-257P); assay: as above; conditions: treatment with Tryprostatin A (data not shown)
Method: as §2

## COc1ccc2c(C[C@@H]3NC(=O)[C@@H]4CCCN4C3=O)c(CC=C(C)C)[nH]c2c1 [TPS-A, tryprostatin A]
[1]; TPS-A, BCRP-expressing gastric and breast cancer cells (Table 1, Figure 2A)
  sensitization to treatment with mitoxantrone: dose-depending sensitization
[1]; increasing concentrations of TPS-A, drug-sensitive, P-gp- or BCRP-expressing carcinoma cells (Table 1, Figure 2B)
  effect on sensitivity to daunorubicin: No significant effect
[2]; 50 µM TPS-A alone in the cell culture medium
  effect on the cell proliferation: without any effect on the cell proliferation; also recorded: did not show any cytotoxic or growth-inhibiting effects
[2]; MCF-7-derived breast cancer model system
  concentration necessary to obtain a level of drug sensitivity beyond that found for 1 µM GF120918: 50 µM
[3]
  PS transport (C6-NBD-PS outward translocation): did not affect PS transport significantly
[4]
  level of Annexin V binding: reduced the level of Annexin V binding to that of control cells; also recorded: reduced to the level found for control cells
[5]
  Annexin V binding: not affected
